A short description of the assay: Four-month weight loss study with oral OEA in the diet; body weight and body composition by DEXA. The assay is classed as in vivo, dogs (adult Labradors). The source says:
The physiological effects of regular oral OEA administration were investigated. OEA was provided as a supplement to dogs for four months to study the effect on body weight loss and body composition. Seventeen adult Labradors participated in the study. Males with greater than 22% body fat and females with greater than 26% body fat were selected. Based on maintenance energy requirements (MER), body weight and percentage of body fat, the dogs were randomly assigned into two groups. The control group (N=9) received a standard dry adult dog food (the control diet without any OEA). The test group (N=8) received the selected dose of OEA incorporated into the standard diet. The dogs were fed 25% less than their MER for 3 months and an additional 15% less for the next month. Body weight was recorded weekly and dual X-ray absorptiometry (DEXA) scans were performed at baseline and every month.

The mark [1] stands for this setting: dogs fed OEA containing diet, calorie restricted, four months, chronic oral.
[2] abbreviates: dogs fed a weight loss diet with OEA.

These results are taken from patent US20140134135A1, “METHODS AND COMPOSITIONS FOR PRESERVING LEAN BODY MASS DURING WEIGHT LOSS” (NESTEC SA, priority 2011, published 2014).

Regarding `CCCCCCCC/C=C\CCCCCCCC(=O)NCCO` [OEA, oleoylethanolamide], under setting [1], the “Fat Loss (g/kg body weight loss)” value is reported as 561 g/kg body weight loss and the “Lean Loss (g/kg body weight loss)” value is recorded as 469 g/kg body weight loss. Also, under setting [2], the “body fat loss versus weight loss diet without OEA (in words)” value is recorded as “more loss in body fat” and the “lean body mass loss versus weight loss diet without OEA (in words)” value is “reduced loss of lean body mass”. Besides, the “less fat lost by dogs fed the control diet than by dogs fed the OEA containing diet, for every kilogram of body weight loss” value (end of the four month study, control diet versus OEA diet) is 52%. Moreover, under “end of the four month study, versus control diet”, the “less lean body mass lost than dogs fed the control diet, for every kilogram of body weight loss” value is given as 20%. For the same molecule, for the setting “end of the four month study, control diet −0.3%”, the “change in body fat” value is given as −1.8%. Besides, the “change in lean body mass” value (end of the four month study, control diet −1432.2 g) was -1166.6 g.
